{"source": "patent US9980976B2", "about": "“Use of REDD1 inhibitors to dissociate therapeutic and adverse atrophogenic effects of glucocorticoid receptor agonists” (Northwestern University, priority 2015, dated 2018)", "key": {"[1]": {"test_system": "glucocorticoid-responsive genes in murine epidermis", "test": "Genome-wide expression profiling of murine epidermis (microarray, Q-PCR validation)", "assay_type": "in vivo, mouse", "conditions": "FA", "method": "To investigate the global role of REDD1 in GR signaling, we performed genome-wide expression profiling of the epidermis of REDD1 and wild-type mice treated with vehicle (control) or FA using Illumina mouse whole-genome gene array (GEO Submission GSE59151). Gene expression was measured 24 h post-FA application, when both TA and TR are usually fully developed (Wu et al, 2004). Differential expression was identified based on the adjusted P-value threshold of 0.05.\nRNA samples were checked for quality and integrity with the Agilent 2100 bioanalyzer and used for microarray analysis. RNA amplification, labeling, and hybridization with the Mouse Whole-Genome Gene Expression BeadChips MouseRef-8 v2.0 (Illumina) were performed at the Genomics Core Facility at the Center for Genetic Medicine at Northwestern University according to Illumina protocols.\nMicroarray processing was performed using the Limma package (Smyth, 2005), using the neqc function to perform background subtraction using the negative control probes, and quantile normalization using both positive and negative control probes. Differentially expressed probes were identified using the linear model implemented in Limma, applying an adjusted P-value threshold of 0.05. Q-PCR and microarray based gene expression values were compared using linear Pearson correlation.\nGene ontology analysis was performed using the DAVID Bioinformatics resource tool (Huang et al, 2009a,b), submitting differentially expressed probes from each experiment, against the probe background of MouseRef 8. DAVID performs a hypergeometric test to identify overrepresented GO terms in a list of differentially expressed probes. Results are presented for categories with greater than or equal to threefold enrichment and P=0.01."}, "[2]": {"test_system": "mouse skin", "test": "Glucocorticoid-induced skin atrophy in mice (morphometric analysis of dorsal skin)", "assay_type": "in vivo", "method": "Seven-week-old females in the telogen stage of the hair cycle were shaved and treated 3 days later. Glucocorticoid FA was applied topically (2 μg/animal) in 200 μl acetone to the back skin once or up to four times every third day as described (Chebotaev et al, 2007c). Control animals were treated with acetone only. Animals were injected i.p. with bromodeoxyuridine (BrdU, Sigma-Aldrich, 50 μg/g of animal weight) 1 h before skin was harvested. Epidermis and s.c. fat were isolated from the murine dorsal skin mechanically by scraping (Chebotaev et al, 2007c). […] Quantification of the epidermal width and number of basal keratinocytes (as the readouts for skin atrophy and hypoplasia of raft epidermis) was performed in dorsal skin and ORC sections stained with H&E. The number of dermal cells was determined on sections stained with Masson's trichrome in the upper (papillary) dermis that is distinguishable from the lower (reticular) dermis ([…] et al, 2013). At least 10 individual fields per slide with at least three samples in each experimental group were counted using Axioplan2 microscope software (Carl Zeiss). All measurements are presented as % to corresponding control."}, "[3]": {"test_system": "pri-miR-221", "test": "Q-PCR analysis of primary miR-221 in mouse epidermis", "assay_type": "in vivo", "conditions": "24 h after single FA application and after the first week of chronic treatment", "method": "FIG. 9. Inverse correlation between pri-miR-221 and REDD1 expression during glucocorticoid treatment. B6D2 mice were treated with FA topically as described in Materials and Methods, epidermis was harvested at indicated time points. A. Western blot analysis. B. Q-PCR analysis of primary miR-221. Data are expressed as the fold change (mean±SD) with respect to the controls (unpaired two-tailed t-test, n=3).\nTotal RNA from murine epidermis, whole human skin, and cell cultures was isolated with RiboPure kit (Ambion, Life Technologies, Grand Island, N.Y., USA). Total RNA from murine s.c. adipose was isolated with RNeasy Lipid Tissue Kit (Qiagen, Valencia, Calif., USA). The RNA samples were treated with TURBOT™ DNase (Ambion). The gene expression was assessed using semi-quantitative two-step RT-PCR and quantitative Q-PCR. Reverse transcription was performed using 1 μg RNA, random hexamers, and M-MLV reverse transcriptase (Invitrogen, Life Technologies), according to manufacturer instructions. The gene-specific primers were designed with NCBI Primer-BLAST (data not shown, see Baida et al., EMBO, 2015, at Supplementary Table S4). […] For semi-quantitative PCRs, Taq DNA polymerase (Promega) was used, and PCR products were separated on 1.5% agarose gel and visualized using automated imaging system (Bio-Rad, Hercules, Calif., USA). […]"}, "[4]": {"conditions": "B6D2 mice, FA 2 μg/animal topically every 72 h, 2-week treatment"}}, "data": [{"smiles": "CC1(C)O[C@@H]2C[C@H]3[C@@H]4C[C@H](F)C5=CC(=O)C=C[C@]5(C)[C@@]4(F)[C@@H](O)C[C@]3(C)[C@]2(C(=O)CO)O1", "note": "[FA, fluocinolone acetonide]", "values": [{"measurement": "gene categories up-regulated (GO analysis)", "setting": "[1]; REDD1 KO keratinocytes", "value": "up-regulated genes related to autophagy, endosomes, and PI3K signaling"}, {"measurement": "Cd74 and H2-Ab1 expression (Q-PCR array validation)", "setting": "[1]; wild-type and REDD1 KO epidermis", "value": "similarly down-regulated"}, {"measurement": "gene categories inhibited (GO analysis)", "setting": "[1]; wild-type but not REDD1 KO skin", "value": "inhibited genes related to DNA replication"}, {"measurement": "depletion of the interfollicular basal keratinocytes", "setting": "[2]; [4]", "value": 50, "unit": "%"}, {"measurement": "epidermal thinning", "setting": "[2]; [4]", "value": 50, "unit": "%"}, {"measurement": "depletion of s.c. adipose tissue", "setting": "[2]; B6D2 mice, chronic FA treatment", "value": "complete depletion"}, {"measurement": "reduction of epidermal thickness", "setting": "[2]; B6×129 mice, FA 2 ug/animal every 72 h for 2 weeks, with or without rapamycin 500 ug/animal×5 hrs pretreatment", "value": 50, "unit": "%"}, {"measurement": "skin atrophy", "setting": "[2]; F1 C57B1×129 mice, topical FA, 2 wk treatment", "value": "severe skin atrophy"}, {"measurement": "reduction of epidermal thickness", "setting": "[2]; REDD1 KO mice, chronic FA 2 μg/animal every 72 h for 2 weeks", "value": "< 20", "unit": "%"}, {"measurement": "number of dermal fibroblasts", "setting": "[2]; w.t. B6×129 mice treated with FA×2 wk, Masson's trichrome", "value": "strongly decreased"}, {"measurement": "reduction of epidermal thickness", "setting": "[2]; wild-type B6×129 mice, chronic FA 2 μg/animal every 72 h for 2 weeks", "value": 50, "unit": "%"}, {"measurement": "pri-miR-221 level", "setting": "[3]", "value": "significantly increased"}]}]}
